# Data as given in patent publication US6239284A, “Aromatic tetracyclic compounds of the retinoid type method for preparing and use” (priority 1997, dated 2001).
# Experiments:
# [1] = system: RARα; experiment: Transactivation of chimerical receptor RARα-ERcassette, transient transfection of HeLa cells; assay type: cell-based; settings: -9 log M; 100% = TTNPB 10^-8 M
# Description: (§1) The HeLa cells are co-transfected by a plasmid which codes for a retinoic receptor in which the C domain of bonding to the DNA is substituted by that of the receptor to RE estrogens, and a plasmid which places the expression of the luciferase under the control of an ERE (Element of Response to Estrogens). The expressed chimerical receptors are designated as RARα-ERcassette, RARβ-ERcassette, RARγ-ERcassette and RXRα-ERcassette. The A, B, D, E and F regions of the natural receptor are preserved as well as the transcriptional co-operation between the activation domains AF-1 and AF-2. These transitory transfection experiments follow the method of co-precipitation to calcium phosphate. The HeLa cells are co-transfected by […] of plasmid coding for the chimerical receptor, […] of reporter plasmid and […] of expression vector CMV-β-galactosidase used as an internal control of transfection. 24 hours after the transfection, the cells are incubated for 16 hours with the different effectors.
# (§2) In this type of chimerical receptor, the C domain of bonding to the DNA of RAR is substituted by that of the receptor to the RE estrogens. The protein obtained is close to the natural RAR receptor and preserves the transcriptional properties of the AF-1 and AF-2 domains. It modulates the transcription by means of an ERE. This RAR-ERcassette model allows one to observe a transcriptional response to a more physiological ligand.
# (§3) The study of the selectivity of the compounds was carried out with the RAR-ERcassette chimerical receptors model.
# On one and the same line in the Table, the cis (Z) compound represents the isomeric structure of the trans (E) compound.
# [2] = system: T-47D cells; experiment: Anti-proliferation effect, estrogen-induced growth of T-47D cells; assay type: cell-based, human; settings: Homo sapiens, T47D, 168 h, read-out: T-47D IC50 (growth inhibition by 50%)
# Protocol: (§4) So as to test the anti-proliferation effect of the retinoids, growth experiments under oestrogenic conditions were carried out on cells MCF-7 and T-47D. These are the human estrogen-dependent mammary cancer cells which express the receptor to RE estrogens. The effect of the molecules is evaluated after 7 days of culture in oestrogenic conditions (estradiol 10^-9 M) by dosing the cellular DNA. The cells are distributed in 24 well plates at a density of 2×10^4 cells per well. The tests with the different retinoids are carried out in triplicate and the culture medium is changed after 4 days of growth.
# (§5) The effect of the retinoids on the growth of MCF-7 and T-47D cells is evaluated after 7 days of culture in the presence of 10^-9 M estradiol by dosing the cellular DNA.
# [3] = system: MCF-7 cells; experiment: Anti-proliferation effect, estrogen-induced growth of MCF-7 cells; assay type: cell-based, human; settings: Homo sapiens, MCF7, 168 h, read-out: MCF-7 IC50 (growth inhibition by 50%)
# Protocol: as §4, §5
# [4] = system: RARE; experiment: HRLN transactivation (stably transfected HeLa, RARE3-tk-Luc, endogenic receptors); assay type: cell-based
# Description: The cellular lineages HRLN and HRL+N allow one to study the activation of an RARE by endogenic receptors using ligands at physiological concentrations. These lineages derive from HeLa cells transfected in a stable fashion by a reporter gene which places the expression of the gene of the luciferase under the control of a nuclear response element RARE (RARE3 -tk-Luc). The HeLa cells express all the known receptors of the retinoic acid (RARα,β,γ and RXRα,β,γ) with a predominance of RARα and RXRα. The response element RARE used for the HRLN cells corresponds to the sequence of the natural gene of the RARβ receptor (GGTTCAnnnnnAGTTCA). The HRL+N cells comprise the sequence GAGTGAnnnnnCGGTGA.
# [5] = system: AP-1; experiment: Anti-AP-1 effect, MTLN cellular lineage (MCF-7 with (TRE)3-tk-Luc) activated by TPA; assay type: cell-based, human; settings: 10^-7 M TPA, range of several experiments
# Protocol: The anti-factor AP-1 transrepressor effect of retinoids is determined using the MTLN lineage, coming from MCF-7 cells transfected in a stable fashion by a vector p(TRE)3 -tk-Luc which places the expression of the gene of luciferase under the control of […]. TPA activates the AP-1 complex formed from proteins of the family of nuclear proto-oncogenes (c-Jun and c-Fos). […] The experiments ware made with the MTLN cells activated by 10^-7 M TPA.
# The effect of the compounds on the MTLN cells activated by 10^-7 M TPA is expressed as a percentage. […] The inhibitive properties of the products are calculated after deduction of the base activity of the cells. The percentages reported correspond to a range of inhibitions determined from several experiments.
# [6] = system: ERE; experiment: Anti-estrogenic effect, MELN cellular lineage (MCF-7 with ERE-βGlob-Luc) activated by estradiol; assay type: cell-based, human; settings: Homo sapiens, read-out: Anti-oestrogenic effect, Inhibition (%)
# Protocol: MCF-7 cells express RARα,γ and RXRα. The transfection of MCF-7 cells by an estrogen-dependent gene (ERE-βGlob-Luc) has permitted the establishment of the MELN cellular lineage, used to determine the anti-oestrogenic activity of the retinoids. These cells contain the gene of the luciferase under the transcriptional control of the promoter of the βGlobine and of the response element ERE isolated from the gene of chicken vitelogenine A2. The experiments are carried out with MELN cells activated by 10^-9 M estradiol. The level of base activity of the MELN cells is obtained with the anti-estrogen 1 μM 4-OH-tamoxifen (hydroxytamoxifen).
# The effect of the products tested on the cells activated by 10^-9 M estradiol is expressed as a percentage, the level of base activity being deducted.
# [7] = system: RAR; experiment: RAR-ERcassette model, specificity profile (transient transfection of HeLa cells); assay type: cell-based
# Description: as §1, §2, §3
# [8] = system: ERE; settings: cited from earlier work
# [9] = system: RAR; experiment: GAL-RAR model, specificity profile (transient transfection of HeLa cells)
# Description: (§6) Studies of the transactivational specificity of the retinoids have been carried out by transitory transfection of HeLa cells. Two types of chimerical receptors can then be expressed by the cells. […] The C region (domain of bonding to the DNA) and the A and B regions (AF-1 activation domain) are suppressed.
# (§7) These chimerical receptors activated by an agonist specifically stimulate the transcription of the gene of the luciferase present in a co-transfected plasmid ((17M)5-βG-Luc) where 17M is the response element of Gal4.
# [10] = system: RARα; experiment: Transactivation of chimerical receptor GAL4-RARα, transient transfection of HeLa cells (luciferase)
# Description: as §6, §7
# [11] = system: RARβ; experiment: Transactivation of chimerical receptor GAL4-RARβ, transient transfection of HeLa cells (luciferase)
# Description: as §6, §7
smiles,measurement,setting,value
"CC1=C(/C=C/C(C)=C/C=C/C(C)=C/C(=O)O)C(C)(C)CCC1 [ttRA, all trans retinoic acid]",RAR-ERcassette RARα transactivation (%),[1],65%
same,IC50,[2],39.1 nM
same,IC50,[3],14.1 ± 10.3 nM
same,HRLN transactivation in words,[4],dose-dependent activation
same,EC50,"[4]; Homo sapiens, HeLa, concentrations from 1 nM to 1 μM, read-out: HRLN transactivation EC50",2.5 ± 4 nM
same,Emax,"[4]; Homo sapiens, HeLa, read-out: HRLN transactivation E max %",208%
same,"Anti-AP-1 effect, Inhibition (%)",[5]; -7 log M,28-44%
same,"Anti-AP-1 effect, Inhibition (%)",[5]; -8 log M,22-33%
same,inhibition at 0.1 µM,[6],35%
same,RAR-ERcassette profile in words,[7],induce an over-expression of luciferase in comparison to the induction brought about by a synthetic compound (TTNPB)
same,Effect on cellular growth and expression of estrogen-dependent genes,[8],reduces the cellular growth and the expression of estrogen-dependent genes
same,GAL-RAR agonist profile in words,[9],good RAR agonists
same,"GAL4-RARα activity, % of activity measured for 10^-8 M TTNPB",[10]; Concentration -6 (log M),108%
same,"GAL4-RARα activity, % of activity measured for 10^-8 M TTNPB",[10]; Concentration -7 (log M),102%
same,"GAL4-RARα activity, % of activity measured for 10^-8 M TTNPB",[10]; Concentration -8 (log M),82%
same,"GAL4-RARβ activity, % of activity measured for 10^-8 M TTNPB",[11]; Concentration -6 (log M),92%
same,"GAL4-RARβ activity, % of activity measured for 10^-8 M TTNPB",[11]; Concentration -7 (log M),93%
same,"GAL4-RARβ activity, % of activity measured for 10^-8 M TTNPB",[11]; Concentration -8 (log M),104%
